# Experimental data as given in ChEMBL document CHEMBL1201862, “PubChem BioAssay data set” (2004).
# Calls of active or inactive are those of the source.
# Tests used:
# [1] = biological target: Tyrosine-protein phosphatase non-receptor type 11 (Homo sapiens, UniProt Q06124); assay: PTPN11 enzyme inhibitors – biochemical, selectivity assay for STEP inhibitor project, dose response (AID 602367); assay type: functional; details: read-out: IC50_Mean
# [2] = biological target: Tyrosine-protein phosphatase non-receptor type 5 (Homo sapiens, UniProt P54829); assay: PTPN5 enzyme inhibition – biochemical, fluorescence intensity, uHTS hits, confirmation (AID 602372); assay type: functional; details: read-out: IC50_Mean
# Sequence of Tyrosine-protein phosphatase non-receptor type 5 (P54829 whole entry): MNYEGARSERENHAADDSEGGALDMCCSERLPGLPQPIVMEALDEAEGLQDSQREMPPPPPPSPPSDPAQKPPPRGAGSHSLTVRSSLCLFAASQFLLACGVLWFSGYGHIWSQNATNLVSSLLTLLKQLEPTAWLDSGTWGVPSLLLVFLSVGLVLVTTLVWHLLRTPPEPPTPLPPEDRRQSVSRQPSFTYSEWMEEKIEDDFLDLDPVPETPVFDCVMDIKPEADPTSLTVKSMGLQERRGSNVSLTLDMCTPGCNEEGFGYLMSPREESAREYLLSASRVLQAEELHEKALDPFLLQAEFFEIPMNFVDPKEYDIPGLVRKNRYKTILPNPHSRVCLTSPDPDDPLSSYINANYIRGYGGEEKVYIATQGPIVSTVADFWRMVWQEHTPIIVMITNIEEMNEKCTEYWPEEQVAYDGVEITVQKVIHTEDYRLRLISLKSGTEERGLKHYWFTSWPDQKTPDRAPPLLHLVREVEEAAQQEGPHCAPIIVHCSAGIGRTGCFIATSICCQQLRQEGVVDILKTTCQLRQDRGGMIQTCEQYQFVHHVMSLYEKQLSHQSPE
# [3] = biological target: Dual specificity protein phosphatase 3 (Homo sapiens, UniProt P51452); assay: VHR phosphatase inhibition, dose response, selectivity assay for STEP inhibitor project, biochemical (AID 602374); assay type: functional; details: read-out: IC50_Mean
# Sequence of Dual specificity protein phosphatase 3 (P51452 whole entry): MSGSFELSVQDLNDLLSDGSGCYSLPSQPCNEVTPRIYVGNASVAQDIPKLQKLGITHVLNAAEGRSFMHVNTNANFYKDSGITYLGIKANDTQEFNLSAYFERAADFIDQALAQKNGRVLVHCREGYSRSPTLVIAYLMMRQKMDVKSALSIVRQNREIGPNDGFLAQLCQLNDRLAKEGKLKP
# Caspase-6 = biological target: T1, Caspase-6 (Homo sapiens, UniProt P55212); assay: inhibition of CASP6 peptide cleavage – biochemical, VEID-R110 fluorescence, cherry-pick, dose response (AID 720632)
# T1 sequence (P55212 whole entry): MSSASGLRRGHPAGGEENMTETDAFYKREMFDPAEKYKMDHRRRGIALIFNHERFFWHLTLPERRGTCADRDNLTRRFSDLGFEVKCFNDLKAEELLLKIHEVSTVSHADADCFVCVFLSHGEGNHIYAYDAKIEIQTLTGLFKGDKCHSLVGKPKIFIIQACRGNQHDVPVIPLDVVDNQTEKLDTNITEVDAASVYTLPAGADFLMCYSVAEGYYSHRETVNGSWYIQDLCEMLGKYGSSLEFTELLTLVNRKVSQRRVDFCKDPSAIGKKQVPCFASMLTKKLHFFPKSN
# Beta-galactosidase = Beta-galactosidase (Escherichia coli, UniProt Q8VNN2); assay: PubChem AID 485352; assay type: functional
# Sequence of Beta-galactosidase (Q8VNN2 whole entry): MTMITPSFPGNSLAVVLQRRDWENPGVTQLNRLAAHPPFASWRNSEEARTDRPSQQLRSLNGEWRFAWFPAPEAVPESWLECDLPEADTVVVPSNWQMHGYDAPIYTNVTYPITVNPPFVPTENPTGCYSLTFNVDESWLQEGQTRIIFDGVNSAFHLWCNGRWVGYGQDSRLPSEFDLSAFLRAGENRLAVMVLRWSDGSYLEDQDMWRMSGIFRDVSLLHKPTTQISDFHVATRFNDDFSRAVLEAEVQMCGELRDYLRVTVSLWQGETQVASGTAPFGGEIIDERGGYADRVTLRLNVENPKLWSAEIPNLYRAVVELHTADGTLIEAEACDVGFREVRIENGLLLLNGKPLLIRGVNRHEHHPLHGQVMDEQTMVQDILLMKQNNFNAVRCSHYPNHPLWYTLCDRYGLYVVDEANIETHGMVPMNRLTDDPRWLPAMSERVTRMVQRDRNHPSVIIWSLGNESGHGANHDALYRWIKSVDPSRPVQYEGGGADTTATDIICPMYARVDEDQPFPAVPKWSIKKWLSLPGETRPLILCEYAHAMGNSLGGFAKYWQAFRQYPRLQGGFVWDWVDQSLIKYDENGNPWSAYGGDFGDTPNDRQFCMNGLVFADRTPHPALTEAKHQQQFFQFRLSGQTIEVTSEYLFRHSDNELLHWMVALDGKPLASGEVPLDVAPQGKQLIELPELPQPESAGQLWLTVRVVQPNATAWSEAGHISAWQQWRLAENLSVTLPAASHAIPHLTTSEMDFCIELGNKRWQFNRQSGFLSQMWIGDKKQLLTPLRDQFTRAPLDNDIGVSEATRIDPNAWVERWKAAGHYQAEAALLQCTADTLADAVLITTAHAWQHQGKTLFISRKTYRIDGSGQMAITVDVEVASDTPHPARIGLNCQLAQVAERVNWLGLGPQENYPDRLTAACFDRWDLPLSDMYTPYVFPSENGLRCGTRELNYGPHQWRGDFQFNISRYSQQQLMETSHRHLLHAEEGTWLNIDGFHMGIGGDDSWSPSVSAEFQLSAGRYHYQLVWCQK
# Large T antigen = Large T antigen (Simian virus 40, UniProt P03070); assay type: functional, Betapolyomavirus macacae;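 further: Confirmatory-stage PubChem screen for compounds that inhibit SV40 T antigen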
# Sequence of Large T antigen (P03070 whole entry): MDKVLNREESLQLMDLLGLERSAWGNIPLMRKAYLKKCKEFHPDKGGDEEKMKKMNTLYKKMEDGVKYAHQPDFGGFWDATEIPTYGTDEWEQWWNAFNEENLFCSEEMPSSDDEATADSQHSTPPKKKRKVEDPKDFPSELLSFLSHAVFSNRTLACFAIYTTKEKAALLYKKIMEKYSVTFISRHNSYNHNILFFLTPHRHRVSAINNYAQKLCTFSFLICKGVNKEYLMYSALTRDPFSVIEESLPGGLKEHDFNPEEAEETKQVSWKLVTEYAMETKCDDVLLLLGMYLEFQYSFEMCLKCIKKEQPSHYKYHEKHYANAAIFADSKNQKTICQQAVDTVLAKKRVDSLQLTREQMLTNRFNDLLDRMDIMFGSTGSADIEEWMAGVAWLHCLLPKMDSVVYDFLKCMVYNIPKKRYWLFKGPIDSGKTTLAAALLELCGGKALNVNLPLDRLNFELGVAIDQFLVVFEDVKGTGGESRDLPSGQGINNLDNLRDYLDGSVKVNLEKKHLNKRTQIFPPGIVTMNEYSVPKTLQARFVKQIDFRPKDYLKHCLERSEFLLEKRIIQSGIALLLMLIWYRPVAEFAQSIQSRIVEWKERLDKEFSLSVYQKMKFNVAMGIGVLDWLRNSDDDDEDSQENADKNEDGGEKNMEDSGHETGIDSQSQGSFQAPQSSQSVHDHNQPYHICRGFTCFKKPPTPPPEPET
# [4] = Trypanosoma cruzi growth suppression in host cells – NIH3T3 host cells, beta-gal luminescence, confirmation (AID 2044); assay type: functional, cell-based;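 further: intracellular parasites grown in NIH/3T3 mouse fibroblasts as host cells; luminescent beta-galactosidase reporter signal from transgenic T. cruzi replicating inside host cells; inhibitors lower the luminescence signal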
# [5] = biological target: T2, Type-1 angiotensin II receptor (Homo sapiens, UniProt P30556); assay: antagonism of angiotensin II type 1 receptor – cell-based, uHTS hits, selectivity assay for APJ receptor antagonist project, dose response (AID 463214); assay type: functional;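 further: antagonist potency against angiotensin II stimulated AT1 response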
# T2 sequence (P30556 whole entry): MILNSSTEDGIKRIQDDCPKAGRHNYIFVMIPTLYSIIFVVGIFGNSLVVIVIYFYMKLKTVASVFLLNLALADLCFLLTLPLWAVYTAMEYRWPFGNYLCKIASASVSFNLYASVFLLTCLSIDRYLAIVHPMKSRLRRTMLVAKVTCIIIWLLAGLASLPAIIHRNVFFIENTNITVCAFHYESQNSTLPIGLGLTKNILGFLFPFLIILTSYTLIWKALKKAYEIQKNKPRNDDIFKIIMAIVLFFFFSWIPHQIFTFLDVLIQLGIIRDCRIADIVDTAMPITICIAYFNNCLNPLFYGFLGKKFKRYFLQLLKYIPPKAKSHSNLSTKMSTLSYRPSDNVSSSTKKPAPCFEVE
# [6] = NIH3T3 cell viability loss – ATP luminescence, mouse fibroblasts, counter-screen, dose response (AID 2010); assay type: functional, cell-based;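 further: cells exposed to compound for about 90 hours before reading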
# INS1 = assay: INS-1E survival protection against cytokine death – cell-based, luminescence, retest, dose response (AID 449756); assay type: functional; details: Rattus norvegicus;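 further: cell death triggered by IL-1 beta plus TNF-alpha plus IFN-gamma mixture; protective hits raise ATP signal compared with cytokine alone wells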
# Melanocortin receptor 4 = Melanocortin receptor 4 (Homo sapiens, UniProt P32245); assay: inhibitors of MC4R cAMP signaling – cell-based, TR-FRET, biased antagonists, dose response (AID 602298); assay type: functional;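 further: antagonist potency against agonist-stimulated cAMP production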
# Sequence of Melanocortin receptor 4 (P32245 whole entry): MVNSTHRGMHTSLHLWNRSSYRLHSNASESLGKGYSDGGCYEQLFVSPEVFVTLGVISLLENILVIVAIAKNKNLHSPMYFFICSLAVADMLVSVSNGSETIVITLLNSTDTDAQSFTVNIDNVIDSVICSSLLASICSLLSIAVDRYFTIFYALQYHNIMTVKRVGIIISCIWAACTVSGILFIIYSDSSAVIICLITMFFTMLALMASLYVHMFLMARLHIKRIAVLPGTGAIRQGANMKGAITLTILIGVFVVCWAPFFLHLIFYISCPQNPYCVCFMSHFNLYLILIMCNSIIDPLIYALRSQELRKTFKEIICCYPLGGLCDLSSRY
# [7] = reduction of Shn3 3'UTR-driven luciferase in osteoblasts – cell-based, Clone20 osteoblasts, firefly luciferase, cherry-picked, dose response (AID 624132); assay type: functional;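 further: firefly luciferase luminescence from reporter carrying the Shn3 3'UTR in osteoblasts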
# [8] = loss of viability in HepG2 cells – cell-based, CellTiter-Glo, cherry-picked, cytotoxicity control for Shn3 inhibitor project, dose response (AID 624134); assay type: functional
# [9] = non-specific 3'UTR reporter inhibition in Clone20-Shn3RL – cell-based, Renilla luciferase, cherry-picked, counter-screen for Shn3 inhibitor project, dose response (AID 624133); assay type: functional
# [10] = cAMP pathway inhibition in counterscreen cell line – TR-FRET cAMP detection, counter-screen for MC4R biased antagonist project, dose response (AID 602305); assay type: functional, cell-based;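 further: U2OS cells stimulated with forskolin near its EC80 as the cAMP inducer; potency is for inhibition of forskolin-stimulated cAMP signaling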
# Paired box protein Pax-8 = Paired box protein Pax-8 (Homo sapiens, UniProt Q06710); assay: PAX8 transcriptional activity inhibition in RMG-I – RMG-I cells, luciferase, cherry-pick, dose response (AID 687027); assay type: functional, cell-based;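 further: luciferase reporter driven by Pax8 target thyroperoxidase promoter measured by SteadyGlo luminescence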
# Sequence of Paired box protein Pax-8 (Q06710 whole entry): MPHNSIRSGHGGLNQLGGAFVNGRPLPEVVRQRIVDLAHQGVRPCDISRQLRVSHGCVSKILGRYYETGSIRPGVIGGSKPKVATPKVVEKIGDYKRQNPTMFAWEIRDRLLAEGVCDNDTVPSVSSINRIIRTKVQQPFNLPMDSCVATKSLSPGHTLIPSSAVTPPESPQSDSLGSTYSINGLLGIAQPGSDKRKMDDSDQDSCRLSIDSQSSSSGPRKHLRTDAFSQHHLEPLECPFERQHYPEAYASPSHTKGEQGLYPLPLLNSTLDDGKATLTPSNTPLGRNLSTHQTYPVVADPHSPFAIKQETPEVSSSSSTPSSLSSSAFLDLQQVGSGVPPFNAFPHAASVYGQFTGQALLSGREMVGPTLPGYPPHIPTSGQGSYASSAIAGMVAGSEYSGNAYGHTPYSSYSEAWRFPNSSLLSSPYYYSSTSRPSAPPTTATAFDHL
# [11] = system: Streptococcus sp. 'group A'; assay: Streptococcus pyogenes SK(-)GAS viability under kanamycin – luminescence, BacTiterGlo, confirmation, counter-screen for streptokinase expression inhibitor project, dose response (AID 1900); assay type: functional, organism-based
# Streptokinase A = biological target: T3, Streptokinase A (Streptococcus pyogenes serotype M1, UniProt P10520); assay: viability-normalized secreted streptokinase activity reduction – plasminogen activation absorbance, OD405, dose response (AID 1914); assay type: functional, Streptococcus pyogenes M1 GAS;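 further: secreted streptokinase activity via plasminogen activation per viability signal from cell pellet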
# T3 sequence (P10520 whole entry): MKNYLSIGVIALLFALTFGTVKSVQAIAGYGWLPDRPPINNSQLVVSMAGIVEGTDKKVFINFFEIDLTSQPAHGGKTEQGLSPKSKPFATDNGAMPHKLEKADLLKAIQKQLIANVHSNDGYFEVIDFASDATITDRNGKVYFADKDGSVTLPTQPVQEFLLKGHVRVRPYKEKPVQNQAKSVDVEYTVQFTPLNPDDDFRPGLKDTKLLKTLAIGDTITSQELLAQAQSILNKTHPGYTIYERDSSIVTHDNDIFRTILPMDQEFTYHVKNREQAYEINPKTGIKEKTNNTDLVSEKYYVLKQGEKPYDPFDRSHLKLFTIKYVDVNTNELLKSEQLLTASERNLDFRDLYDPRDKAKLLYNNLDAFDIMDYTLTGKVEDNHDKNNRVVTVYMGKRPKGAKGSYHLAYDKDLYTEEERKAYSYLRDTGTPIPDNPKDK
# Streptococcus = assay: GAS UMAA2166 growth inhibition – luminescence, BacTiterGlo, counter-screen for streptokinase expression inhibitor project, dose response (AID 1915); assay type: functional, organism-based;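 further: potency for reduction of bacterial viability or growth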
# Protein Wnt-3a = Protein Wnt-3a (Mus musculus, UniProt P27467); assay: antagonism of Wnt3a pathway luciferase reporter – Wnt-LIGHT cells, luminescence, selectivity assay for Gli-SUFU antagonist project, dose response (AID 651570); assay type: functional; details: read-out: IC50_Mean;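 further: Wnt-LIGHT reporter cells stimulated with conditioned medium from Wnt3a-producing cells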
# Sequence of Protein Wnt-3a (P27467 whole entry, the tested form may be a part): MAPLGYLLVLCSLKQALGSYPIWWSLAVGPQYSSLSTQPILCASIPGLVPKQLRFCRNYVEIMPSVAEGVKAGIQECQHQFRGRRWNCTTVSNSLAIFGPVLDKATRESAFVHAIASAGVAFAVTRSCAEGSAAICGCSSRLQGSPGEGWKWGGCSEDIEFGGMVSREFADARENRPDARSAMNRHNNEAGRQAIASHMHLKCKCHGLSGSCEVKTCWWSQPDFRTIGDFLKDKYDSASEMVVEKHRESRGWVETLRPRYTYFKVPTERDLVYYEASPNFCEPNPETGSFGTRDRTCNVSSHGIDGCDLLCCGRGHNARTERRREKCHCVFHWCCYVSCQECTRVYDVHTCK
# [12] = biological target: Hepatocyte nuclear factor 4-alpha (Homo sapiens, UniProt P41235); assay type: functional, cell-based;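 further: biochemical luminescence-based dose-response counterscreen measuring inhibition of HNF4 dimerization, run alongside a screen for blockers of ABHD5–perilipin-5 interaction; split luciferase complementation of HNF4 fusion proteins in cell lysate measuring dimerization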
# Sequence of Hepatocyte nuclear factor 4-alpha (P41235 whole entry, the tested form may be a part): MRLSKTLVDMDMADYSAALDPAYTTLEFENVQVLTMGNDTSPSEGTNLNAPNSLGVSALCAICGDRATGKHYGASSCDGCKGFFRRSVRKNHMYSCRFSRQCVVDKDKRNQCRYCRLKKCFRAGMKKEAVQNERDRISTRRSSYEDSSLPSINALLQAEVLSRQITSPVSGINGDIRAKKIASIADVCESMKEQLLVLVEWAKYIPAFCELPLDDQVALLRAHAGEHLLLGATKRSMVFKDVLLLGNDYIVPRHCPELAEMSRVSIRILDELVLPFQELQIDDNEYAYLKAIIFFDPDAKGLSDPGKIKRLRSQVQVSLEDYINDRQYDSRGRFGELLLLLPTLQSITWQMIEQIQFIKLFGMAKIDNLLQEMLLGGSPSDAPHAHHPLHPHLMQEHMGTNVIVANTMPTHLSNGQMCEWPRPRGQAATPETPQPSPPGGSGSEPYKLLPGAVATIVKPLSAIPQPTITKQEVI
# [13] = inhibition of ARNT PAS-B/TACC3 complex formation – biochemical, AlphaScreen, cherry-picked samples, confirmation (AID 651703); assay type: functional, Homo sapiens;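 further: His-tagged ARNT PAS-B domain paired with GST-TACC3 E629A dimer coactivator fragment; potency of inhibitors that break up the complex and lower AlphaScreen signal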
# [14] = biological target: T4, 1-phosphatidylinositol 4,5-bisphosphate phosphodiesterase gamma-1 (Homo sapiens, UniProt P19174); assay: Counterscreen for inhibitors of phospholipase C isozymes (PLC-B3): Fluorescence-based biochemical high throughput dose response assay to identify inhibitors of phospholipase C isozymes (PLC-gamma1).
# T4 sequence (P19174 whole entry): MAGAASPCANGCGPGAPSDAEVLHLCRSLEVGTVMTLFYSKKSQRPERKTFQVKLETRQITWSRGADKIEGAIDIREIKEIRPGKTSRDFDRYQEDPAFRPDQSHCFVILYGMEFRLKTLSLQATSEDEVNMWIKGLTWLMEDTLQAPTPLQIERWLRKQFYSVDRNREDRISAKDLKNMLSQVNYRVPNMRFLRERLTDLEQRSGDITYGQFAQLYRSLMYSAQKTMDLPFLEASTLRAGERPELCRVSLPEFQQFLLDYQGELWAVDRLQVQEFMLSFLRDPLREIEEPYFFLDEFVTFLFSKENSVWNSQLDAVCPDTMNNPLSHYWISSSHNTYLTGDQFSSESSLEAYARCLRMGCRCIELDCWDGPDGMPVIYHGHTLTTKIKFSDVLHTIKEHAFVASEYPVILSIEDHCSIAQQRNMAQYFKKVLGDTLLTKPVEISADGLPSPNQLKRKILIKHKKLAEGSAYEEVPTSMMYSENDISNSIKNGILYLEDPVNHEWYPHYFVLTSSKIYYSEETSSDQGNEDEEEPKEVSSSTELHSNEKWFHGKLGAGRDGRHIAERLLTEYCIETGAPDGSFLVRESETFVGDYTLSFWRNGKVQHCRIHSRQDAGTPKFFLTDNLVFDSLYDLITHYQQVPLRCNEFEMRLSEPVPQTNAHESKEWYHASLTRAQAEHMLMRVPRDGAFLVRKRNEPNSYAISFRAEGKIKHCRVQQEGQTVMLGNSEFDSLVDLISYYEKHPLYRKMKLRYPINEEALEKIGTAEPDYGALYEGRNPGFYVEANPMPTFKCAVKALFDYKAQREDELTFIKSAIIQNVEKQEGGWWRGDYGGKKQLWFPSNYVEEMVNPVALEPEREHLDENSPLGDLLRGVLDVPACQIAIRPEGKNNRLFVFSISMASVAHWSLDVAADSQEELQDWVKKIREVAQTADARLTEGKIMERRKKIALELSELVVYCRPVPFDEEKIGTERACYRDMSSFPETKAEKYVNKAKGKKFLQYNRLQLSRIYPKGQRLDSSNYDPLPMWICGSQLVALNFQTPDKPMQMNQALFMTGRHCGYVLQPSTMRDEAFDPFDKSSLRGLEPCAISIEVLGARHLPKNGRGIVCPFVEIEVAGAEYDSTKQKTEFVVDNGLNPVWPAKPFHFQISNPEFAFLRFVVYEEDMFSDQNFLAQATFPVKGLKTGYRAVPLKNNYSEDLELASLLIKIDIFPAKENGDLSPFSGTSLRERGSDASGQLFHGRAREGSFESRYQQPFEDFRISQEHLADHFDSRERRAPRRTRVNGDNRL
# [15] = biological target: T5, 1-phosphatidylinositol 4,5-bisphosphate phosphodiesterase beta-3 (Homo sapiens, UniProt Q01970); assay: Fluorescence-based biochemical high throughput dose response assay to identify inhibitors of phospholipase C isozymes (PLC-B3).
# T5 sequence (Q01970 whole entry): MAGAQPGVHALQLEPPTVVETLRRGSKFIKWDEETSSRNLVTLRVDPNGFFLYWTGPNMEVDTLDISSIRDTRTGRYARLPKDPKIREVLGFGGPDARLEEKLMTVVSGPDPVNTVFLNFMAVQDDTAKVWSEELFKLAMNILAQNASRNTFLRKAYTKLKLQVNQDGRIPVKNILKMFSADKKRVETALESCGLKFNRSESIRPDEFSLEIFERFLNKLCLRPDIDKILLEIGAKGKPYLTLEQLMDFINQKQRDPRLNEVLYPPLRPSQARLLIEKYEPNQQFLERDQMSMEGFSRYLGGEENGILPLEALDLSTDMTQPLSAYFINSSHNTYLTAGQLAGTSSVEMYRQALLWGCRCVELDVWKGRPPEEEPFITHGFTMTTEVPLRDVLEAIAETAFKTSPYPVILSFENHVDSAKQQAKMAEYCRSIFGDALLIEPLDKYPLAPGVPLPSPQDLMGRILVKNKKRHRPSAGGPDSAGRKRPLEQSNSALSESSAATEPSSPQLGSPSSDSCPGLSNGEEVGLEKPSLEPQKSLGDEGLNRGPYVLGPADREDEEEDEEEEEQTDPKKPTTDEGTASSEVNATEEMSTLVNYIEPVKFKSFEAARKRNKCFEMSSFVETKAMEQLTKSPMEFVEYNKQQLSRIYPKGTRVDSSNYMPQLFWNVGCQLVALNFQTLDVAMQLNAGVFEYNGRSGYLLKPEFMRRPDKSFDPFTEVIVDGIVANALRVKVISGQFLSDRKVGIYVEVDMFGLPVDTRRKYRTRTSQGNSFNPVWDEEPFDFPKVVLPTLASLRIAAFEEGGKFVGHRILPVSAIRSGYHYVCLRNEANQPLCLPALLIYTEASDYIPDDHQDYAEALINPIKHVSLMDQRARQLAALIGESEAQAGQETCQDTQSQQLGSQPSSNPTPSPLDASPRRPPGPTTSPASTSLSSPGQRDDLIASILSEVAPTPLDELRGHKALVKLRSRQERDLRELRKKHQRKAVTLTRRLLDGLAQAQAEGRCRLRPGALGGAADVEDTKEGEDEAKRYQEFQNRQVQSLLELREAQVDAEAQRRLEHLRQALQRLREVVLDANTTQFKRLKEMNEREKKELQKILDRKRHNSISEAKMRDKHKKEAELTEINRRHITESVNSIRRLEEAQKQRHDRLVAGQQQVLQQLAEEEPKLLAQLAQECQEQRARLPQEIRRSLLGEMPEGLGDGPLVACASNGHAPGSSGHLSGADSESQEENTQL
# Sequence of Tyrosine-protein phosphatase non-receptor type 11 (Q06124 whole entry): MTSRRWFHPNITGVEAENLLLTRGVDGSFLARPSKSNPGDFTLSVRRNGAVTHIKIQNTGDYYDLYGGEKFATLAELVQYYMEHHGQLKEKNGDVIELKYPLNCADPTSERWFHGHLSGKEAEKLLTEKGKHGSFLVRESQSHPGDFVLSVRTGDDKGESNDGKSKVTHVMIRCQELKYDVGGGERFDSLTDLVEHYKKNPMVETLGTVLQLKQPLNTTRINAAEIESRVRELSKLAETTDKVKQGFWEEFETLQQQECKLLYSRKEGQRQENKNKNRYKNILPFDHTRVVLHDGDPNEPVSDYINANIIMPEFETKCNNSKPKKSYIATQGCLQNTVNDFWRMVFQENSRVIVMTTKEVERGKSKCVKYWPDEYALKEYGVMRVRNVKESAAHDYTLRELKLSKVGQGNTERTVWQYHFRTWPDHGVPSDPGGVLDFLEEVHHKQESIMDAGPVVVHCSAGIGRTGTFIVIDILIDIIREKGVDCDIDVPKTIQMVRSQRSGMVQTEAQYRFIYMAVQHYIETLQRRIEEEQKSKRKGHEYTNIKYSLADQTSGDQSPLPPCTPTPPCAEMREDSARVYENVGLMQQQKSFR
smiles,measurement,setting,value
COC(=O)c1ccccc1CSc1nsc(/C=C/N(C)C)c1C#N,IC50,[1],2.38 µM (active)
same,IC50,[2],14.5 µM (active)
same,IC50,[3],1.29 µM (active)
same,AC50,Caspase-6,34.5 µM (active)
CCS(=O)(=O)c1ncc(Cl)c(C(=O)Nc2ccc(S(=O)(=O)N3CCCC(C)C3)cc2)n1 (stereo unspecified),EC50,Beta-galactosidase,> 40 µM (inactive)
same,IC50,Large T antigen,62.8 µM (active)
same,EC50,[4],2.25 µM (active)
same,IC50,[5],2.18 µM (active)
same,EC50,[6],3.48 µM (active)
same,AC50,INS1,4.76 µM (active)
same,IC50,Melanocortin receptor 4,> 0.797 µM (active)
same,AC50,[7],< 0.26 µM (active)
same,AC50,[8],9.33 µM (active)
same,AC50,[9],3.95 µM (active)
same,IC50,[10],> 64.6 µM (inactive)
same,AC50,Paired box protein Pax-8,5.34 µM (active)
COC(=O)c1cc(S(=O)(=O)n2nc(C)c(Br)c2C)c(Cl)cc1Cl,EC50,[11],1.8 µM (active)
same,EC50,Streptokinase A,> 150 µM (not active)
same,EC50,Streptococcus,10.4 µM (active)
same,IC50,Melanocortin receptor 4,> 64.6 µM (inactive)
same,IC50,[10],> 64.6 µM (inactive)
CCC(C)CCN1C(N(C)C)=NC[C@@H]1CC(C)C (stereo partly specified),IC50,Protein Wnt-3a,6.72 µM (active)
N#Cc1ccc(C(C(=O)NC2CCCCC2)n2c(=O)c(-c3ccco3)nc3ccccc32)cc1 (stereo unspecified),IC50,[12],2.39 µM (active)
CCOc1ccccc1Nc1nc(N)nc(CN(C)C2CCCCC2)n1,AC50,[13],80.6 µM (active)
same,IC50,[14],> 123 µM (inactive)
same,IC50,[15],> 123 µM (inactive)
